Data on three compounds can be found in PMC11369877 (Therapeutic Advances in Medical Oncology, 2024).

For series [1] the following is noted: human, in vivo.
Series [2] deals with Asian patients. The following applies: palbociclib plus letrozole, PALOMA-4 trial; cited from earlier work.

In the case of `N#Cc1ccc(C(c2ccc(C#N)cc2)n2cncn2)cc1` [letrozole], in series [1], the “geometric mean Rac,AUC” value was 6.25–6.41. The same measure, in the same setting: the same measure for `CC(C)(C#N)c1cc(Cn2cncn2)cc(C(C)(C)C#N)c1` [anastrozole]: 3.66–4.15. Regarding `CC(=O)c1c(C)c2cnc(Nc3ccc(N4CCNCC4)cn3)nc2n(C2CCCC2)c1=O` [palbociclib], in series [2], the “neutropenia, grade 3” value is recorded as 72% and the “neutropenia, grade 4” value is 12.5%.
